Test results from US10640468B2, “1-(4-(2-((1-(3,4-difluorophenyl)-1H-pyrazol-3-Yl)methoxy)ethyl)piperazin-1- Yl)ethanone salts” (ESTEVE PHARMACEUTICALS S.A., priority 2015, dated 2020).
Where “and” joins values, the source holds several entries; their conditions need not be identical. Equal values may be shown once. Where a name gives a salt, the structure may show the parent alone. Read-outs that look alike come from different tables or passages of the source.

Columns and labels:
[1] = Thermodynamic solubility at pH 7.4; type: physicochemical; settings: for solubility thermodynamic at 24 h: phosphate buffer, 25 °C, pH 7.4, aqueous buffer, thermodynamic from solid
Protocol: General protocol for thermodynamic solubility at pH 7.4 and pH 2 are described. • A) Thermodynamic Solubility at pH 7.4
Phosphate buffer at pH 7.4 (25 mM) was prepared as follows:
A solution 25 mM of Na2HPO4.12H2O (for 1 L of water, weight 8.96 g) was prepared
A solution 25 mM de KH2PO4 (for 1 L of water weight 3.4 g) was prepared.
Disodium phosphate solution (812 mL) and potassium phosphate (182 mL) solution were mixed and pH checked to be 7.4.
Equipment • Precision analytical balance Mettler Toledo AT20. • Analytical balance Mettler Toledo PJ300. • Liquid chromatograph Waters Alliance 2695. • Stirrer Thermomixer Control of Eppendorf a 25° C. y 1250 rpm • pHmeter with combined semi-micro electrode.
Around 4 mg of compound in an HPLC vial (by duplicate) was dissolved in 1 mL of buffer solution. After stirring in Thermomixer Comfort system for 24 hours at 25° C., in order to achieve thermodynamic equilibrium, solution was centrifuged at 3000 rpm for 15 minutes.
The resulting upper layer was collected with a glass pipette and transferred to the HPLC vials in order to inject them (10 μL) directly to the HPLC instrument.
Standards were made in methanol to ensure overall compound solubility. Preparation of standard calibrators is illustrated below:
Sol.A: 4 mg in 1 mL methanol (4000 μg/mL)
Sol.B: 0.5 mL Sol.A to 5 mL with methanol (400 μg/mL)
Sol.C: 1 mL Sol.B to 10 mL with methanol (40 μg/mL)
Sol.D: 5 mL […] to 50 mL with methanol (4 μg/mL)
Sol.E: 4 mL Sol.D to 10 mL with methanol (1.6 μg/mL)
Calibration curve was created through 10 μL injection of standards, beginning with the more diluted standard. Blanks were also injected, for checking the absence of contamination.
10 μl of test substance were injected, by duplicate, and the average peak area interpolated in the calibration curve (see Tables Examples below).
Chromatographic Conditions • Column: XBridge C18 (or similar) 2.5 μm 4.6×50 mm • Temperature: 35° C. • Mobile phase: ACN/ammonium bicarbonate 10 mM. • Gradient: 0-3.5 min: from 15% CAN to 95% CAN • 3.5-5 min: 95% ACN • 5-6 min: 95 a 15% ACN • 6-8 min: 15% ACN • Flow: 1.5 mL/min • Detection: around the maximum UV wavelength. • B) Thermodynamic Solubility at pH 2

[2] = Pharmacokinetics after single oral administration to male Wistar rat; type: in vivo
Protocol: The pharmacokinetics of Example 1 and 2 were tested using the following protocol:
Male Wistar rats weighing 250 to 300 g (±20) supplied by Harlan were used. Water and food was available ad libitum throughout the study.
Administration and Sample Collection
Two rats (R1 and R2) were used in the pharmacokinetic oral studies.
A single dose of tested compound was administered by oral gavage [10 mg/kg as free base (Example 0)] in 0.5% hydroxypropyl methylcellulose (1 mg/ml). From each rat, serial blood samples were collected at 15 and 30 min, 1, 2, 3, 5, 7 and 24 h.
Blood was collected from the saphenous veins into heparinized tubes. Plasma was obtained by blood centrifugation at 4° C. and 2280×g for 10 min and kept at −80° C. until analysis.
Tested compound concentration in plasma samples was determined by least-squares linear regression using a ten-point calibration curve. The calibration curve was prepared in blank plasma from a working solution of 1 mg/ml in DMSO.
Samples were thawed at room temperature on the day of analysis. After plasma protein precipitation of samples and calibration standards with acetonitrile (1:4.3; v/v), the mixture was vortexed and centrifuged (4° C. and 16090×g for 10 min).
Tested compound plasma concentrations were determined by high performance liquid chromatography-triple quadrupole mass spectrometry (HPLC-MS/MS) through the following method:
Column: Atlantis® T3 column (2.1×100 mm, 3 μm) (Waters).
Mobile phase: A: 0.0155% Formic water • B: 0.0155% Formic Acetonitrile
Autosampler wash: Solvent 1:Acetonitrile • Solvent 2: 5% Acetonitrile+95% Water
Standard pharmacokinetic parameters, such as area under the curve (AUC), peak plasma concentration (Cmax), time to peak concentration (tmax), oral bioavailability (F), total plasma clearance (Cl), volume of distribution at steady-state (Vss), mean residence time (MRT) and terminal half-life (t1/2), were determined by non-compartmental analysis of the plasma concentration-time curves (Phoenix v. 6.2.1.51, Pharsight, C A).

[3] = mean of 2 rats, 10 mg/kg oral, hydrochloride, 10 mg/kg

SMILES: CC(=O)N1CCN(CCOCc2ccn(-c3ccc(F)c(F)c3)n2)CC1 [Example 1, hydrochloride]
- Conc. ([1]; pH 7.4, single HPLC injections of duplicate vials, hydrochloride): 3928 µg/mL and 3817.1 µg/mL and 4301.5 µg/mL and 4345.3 µg/mL
- solubility thermodynamic at 24 h ([1]; pH 7.4, mean of 4 injections, read-out: Conc. Mean): 4100 µg/mL
- solubility thermodynamic at 24 h ([1]; pH=7.4, 24 hours at 25° C., completely dissolved, read-out: thermodynamic solubility): > 4000 µg/mL
- F ([2]; animal 1, 10 mg/kg oral, mean AUC after i.v. administration used for calculation, hydrochloride): 66%
- F ([2]; animal 2, 10 mg/kg oral, mean AUC after i.v. administration used for calculation, hydrochloride): 53%
- Vd ([2]; male, Wistar, plasma, rat, total body water volume 0.6 l/kg, read-out: volume of distribution): 1.2 L/kg
- bioavailability ([2]; male, Wistar, rat, plasma, oral, 10 mg/kg, mean of 2 rats, 10 mg/kg oral, mean AUC after i.v. administration used for calculation, read-out: F (oral bioavailability)): 60%
- AUC ([2]; male, Wistar, rat, plasma, po, 10 mg/kg, animal 1, 10 mg/kg oral, read-out: AUC): 2950 ng·h/mL
- Cmax ([2]; male, Wistar, rat, plasma, po, 10 mg/kg, animal 1, 10 mg/kg oral, read-out: Cmax): 1.31 µg/mL
- half-life ([2]; male, Wistar, rat, plasma, po, 10 mg/kg, animal 1, 10 mg/kg oral, read-out: t1/2 (converted)): 54 min
- tmax ([2]; male, Wistar, rat, plasma, po, 10 mg/kg, animal 1, 10 mg/kg oral, read-out: tmax): 15 min
- AUC ([2]; male, Wistar, rat, plasma, po, 10 mg/kg, animal 2, 10 mg/kg oral, read-out: AUC): 2340 ng·h/mL
- Cmax ([2]; male, Wistar, rat, plasma, po, 10 mg/kg, animal 2, 10 mg/kg oral, read-out: Cmax): 1.05 µg/mL
- half-life ([2]; male, Wistar, rat, plasma, po, 10 mg/kg, animal 2, 10 mg/kg oral, read-out: t1/2 (converted)): 54 min
- tmax ([2]; male, Wistar, rat, plasma, po, 10 mg/kg, animal 2, 10 mg/kg oral, read-out: tmax): 60 min
- AUC ([2]; male, Wistar, rat, plasma, po, 10 mg/kg, mean of 2 rats, 10 mg/kg oral, read-out: AUC): ~2600 ng·h/mL
- Cmax ([2]; male, Wistar, rat, plasma, po, 10 mg/kg, mean of 2 rats, 10 mg/kg oral, read-out: Cmax (peak plasma concentration)): ~1 µg/mL
- half-life ([2]; male, Wistar, rat, plasma, po, 10 mg/kg, mean of 2 rats, 10 mg/kg oral, read-out: t1/2 (terminal half-life)): < 60 min
- tmax ([2]; male, Wistar, rat, plasma, po, 10 mg/kg, mean of 2 rats, 10 mg/kg oral, read-out: tmax): 36 min
- concentration at 0.5 h ([2]; male, Wistar, rat, plasma, po, 10 mg/kg, rat R1, 0.5 h, 10 mg/kg oral): 1.3 µg/mL
- concentration at 1 h ([2]; male, Wistar, rat, plasma, po, 10 mg/kg, rat R1, 1 h, 10 mg/kg oral): 1.07 µg/mL
- concentration at 5 h ([2]; male, Wistar, rat, plasma, po, 10 mg/kg, rat R1, 5 h, 10 mg/kg oral): 0.0496 µg/mL
- concentration at 0.5 h ([2]; male, Wistar, rat, plasma, po, 10 mg/kg, rat R2, 0.5 h, 10 mg/kg oral): 0.742 µg/mL
- concentration at 1 h ([2]; male, Wistar, rat, plasma, po, 10 mg/kg, rat R2, 1 h, 10 mg/kg oral): 1.05 µg/mL
- concentration at 5 h ([2]; male, Wistar, rat, plasma, po, 10 mg/kg, rat R2, 5 h, 10 mg/kg oral): 0.0469 µg/mL
- concentration at 7 h ([2]; male, Wistar, rat, plasma, po, 10 mg/kg, rat R2, 7 h, 10 mg/kg oral): 0.0115 µg/mL
- AUC [2, 3]: 2645 ng·h/mL
- t1/2 (terminal half-life) [2, 3]: 54 min
- tmax [2, 3]: 37.8 min
- plasma clearance ([2]; rat): 70 % liver blood flow
- Plasma concentration ([2]; rat R1, 2 h, 10 mg/kg oral, hydrochloride, 10 mg/kg): 0.7228 µg/mL
- Plasma concentration ([2]; rat R1, 3 h, 10 mg/kg oral, hydrochloride, 10 mg/kg): 0.3231 µg/mL
- Plasma concentration ([2]; rat R1, 7 h, 10 mg/kg oral, hydrochloride, 10 mg/kg): 0.0128 µg/mL
- Plasma concentration ([2]; rat R1, 24 h, 10 mg/kg oral, LLOQ 2 ng/ml): <lloq
- Plasma concentration ([2]; rat R2, 2 h, 10 mg/kg oral, hydrochloride, 10 mg/kg): 0.6739 µg/mL
- Plasma concentration ([2]; rat R2, 3 h, 10 mg/kg oral, hydrochloride, 10 mg/kg): 0.2331 µg/mL
- Plasma concentration ([2]; rat R2, 24 h, 10 mg/kg oral, LLOQ 2 ng/ml): <lloq
